# Test results taken from ChEMBL document CHEMBL5113484, “Synthesis and biological evaluation of novel pentanediamide derivatives as S-adenosyl-l-homocysteine hydrolase inhibitors” (Bioorg Med Chem Lett, 2022).
# Experiments:
# [1] = test system: MCF7; assay: Cytotoxicity against human MCF7 cells assessed as cell growth inhibition; type: functional, cell-based
# [2] = test system: A549; assay: Cytotoxicity against human A549 cells assessed as cell growth inhibition; type: functional, cell-based
# [3] = test system: HeLa; assay: Cytotoxicity against human HeLa cells assessed as cell growth inhibition; type: functional, cell-based
# [4] = test system: MGC-803; assay: Cytotoxicity against human MGC-803 cells assessed as cell growth inhibition; type: functional, cell-based
# [5] = test system: L02; assay: Cytotoxicity against human L02 cells assessed as cell growth inhibition; type: functional, cell-based
# [6] = biological target: Adenosylhomocysteinase (Homo sapiens, UniProt P23526); assay: Inhibition of SAH hydrolase (unknown origin)
# [7] = Cytotoxicity against African green monkey Vero cells assessed as cell growth inhibition; type: toxicity, cell-based; details: chlorocebus sabaeus
# [8] = test system: Vesicular stomatitis virus; assay: Antiviral activity against Vesicular stomatitis virus assessed as viral growth inhibition; type: functional, organism-based
# [9] = test system: Respiratory syncytial virus; assay: Antiviral activity against Respiratory syncytial virus assessed as viral growth inhibition; type: functional, organism-based; details: human respiratory syncytial virus
# [10] = Selectivity index, ratio of CC50 for cytotoxicity against African green monkey Vero cells to EC50 for antiviral activity against Vesicular stomatitis virus; type: toxicity, cell-based; details: read-out: Ratio CC50/EC50
# [11] = Selectivity index, ratio of CC50 for cytotoxicity against African green monkey Vero cells to EC50 for antiviral activity against Respiratory syncytial virus; type: toxicity, cell-based; details: read-out: Ratio CC50/EC50
# Sequence of Adenosylhomocysteinase (P23526 whole entry): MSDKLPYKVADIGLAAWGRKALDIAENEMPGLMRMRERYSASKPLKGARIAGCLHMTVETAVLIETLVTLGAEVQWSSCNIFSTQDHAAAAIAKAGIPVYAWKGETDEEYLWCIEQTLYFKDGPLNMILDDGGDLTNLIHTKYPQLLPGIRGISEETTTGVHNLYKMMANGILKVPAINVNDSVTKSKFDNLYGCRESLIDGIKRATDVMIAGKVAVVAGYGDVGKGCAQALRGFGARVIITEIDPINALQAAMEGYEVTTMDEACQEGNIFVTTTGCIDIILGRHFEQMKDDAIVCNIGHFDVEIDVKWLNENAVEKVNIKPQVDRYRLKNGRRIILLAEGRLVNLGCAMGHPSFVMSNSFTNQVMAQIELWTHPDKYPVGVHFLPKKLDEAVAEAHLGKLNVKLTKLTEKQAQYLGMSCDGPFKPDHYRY
SMILES,IC50 [1],IC50 [2],IC50 [3],IC50 [4],IC50 [5],IC50 [6],CC50 [7],EC50 [8],EC50 [9],selectivity ratio [10],selectivity ratio [11]
O=C(CC(CC(=O)NC1Cc2ccccc2C1)c1ccccc1)NCCN1CCCC1 (stereo not given),> 100 µM,> 100 µM,> 100 µM,> 100 µM,> 100 µM,,,,,,
CCN(C(=O)CC(CC(=O)NCCN1CCCCC1)c1ccccc1)C1Cc2ccccc2C1 (stereo not given),> 100 µM,84.5 µM,> 100 µM,> 100 µM,> 100 µM,,,,,,
Nc1nccc2c1ncn2[C@@H]1O[C@H](CO)[C@@H](O)[C@H]1O,40.3 µM,57.4 µM,,41.1 µM,94.4 µM,5.39 µM,,,,,
CCNCCNC(=O)CC(CC(=O)N(CC)C1Cc2ccccc2C1)c1ccccc1 (stereo not given),> 100 µM,> 100 µM,> 100 µM,> 100 µM,> 100 µM,3.48 µM,,,,,
CNCCNC(=O)CC(CC(=O)NC1Cc2ccccc2C1)c1ccc(Cl)cc1 (stereo not given),> 100 µM,> 100 µM,> 100 µM,> 100 µM,> 100 µM,,,,,,
O=c1[nH]cc(F)c(=O)[nH]1 [FLUOROURACIL],48.5 µM,,,38.5 µM,46.5 µM,,,,,,
CN(C(=O)CC(CC(=O)NCCN1CCCC1)c1ccc(Cl)cc1)C1Cc2ccccc2C1 (stereo not given),76.7 µM,56 µM,55.4 µM,83.8 µM,81.5 µM,,,,,,
CCN(CC)CCNC(=O)CC(CC(=O)N(C)C1Cc2ccccc2C1)c1ccc(Cl)cc1 (stereo not given),28.8 µM,21.4 µM,48.1 µM,81.2 µM,56.5 µM,,,,,,
CCN(CC)CCNC(=O)CC(CC(=O)NC1Cc2ccccc2C1)c1ccccc1 (stereo not given),> 100 µM,82.4 µM,> 100 µM,> 100 µM,> 100 µM,,,,,,
Cc1ccc(C(CC(=O)NCCN2CCCCC2)CC(=O)NC2Cc3ccccc3C2)cc1 (stereo not given),> 100 µM,> 100 µM,> 100 µM,> 100 µM,> 100 µM,,,,,,
CCNCCNC(=O)CC(CC(=O)N(CC)C1Cc2ccccc2C1)c1ccc(Cl)cc1 (stereo not given),14.4 µM,19.4 µM,40.5 µM,43.8 µM,66.2 µM,3.78 µM,144 µM,> 100 µM,> 100 µM,,
O=C(CC(CC(=O)NC1Cc2ccccc2C1)c1ccccc1)NCCN1CCCCC1 (stereo not given),> 100 µM,> 100 µM,> 100 µM,> 100 µM,> 100 µM,,,,,,
CCN(CC)CCNC(=O)CC(CC(=O)NC1Cc2ccccc2C1)c1ccc(Cl)cc1 (stereo not given),75 µM,48.6 µM,50.5 µM,> 100 µM,76.7 µM,3.68 µM,,,,,
O=C(CC(CC(=O)NC1Cc2ccccc2C1)c1ccc(Cl)cc1)NCCN1CCCCC1 (stereo not given),35.5 µM,28 µM,86.2 µM,89.1 µM,70.4 µM,,,,,,
CCNCCNC(=O)CC(CC(=O)NC1Cc2ccccc2C1)c1ccc(Cl)cc1 (stereo not given),> 100 µM,52 µM,68.4 µM,> 100 µM,83.7 µM,,,,,,
O=C(CC(CC(=O)NC1Cc2ccccc2C1)c1ccc(Cl)cc1)NCCN1CCCC1 (stereo not given),> 100 µM,50.9 µM,77.3 µM,> 100 µM,89.4 µM,,,,,,
CCNCCNC(=O)CC(CC(=O)NC1Cc2ccccc2C1)c1ccccc1 (stereo not given),> 100 µM,> 100 µM,> 100 µM,> 100 µM,> 100 µM,,,,,,
CCN(CC)CCNC(=O)CC(CC(=O)N(C)C1Cc2ccccc2C1)c1ccccc1 (stereo not given),> 100 µM,> 100 µM,> 100 µM,> 100 µM,> 100 µM,,,,,,
CN(C(=O)CC(CC(=O)NCCN1CCCC1)c1ccccc1)C1Cc2ccccc2C1 (stereo not given),> 100 µM,> 100 µM,> 100 µM,> 100 µM,> 100 µM,,,,,,
CCN(CC)CCNC(=O)CC(CC(=O)N(CC)C1Cc2ccccc2C1)c1ccc(Cl)cc1 (stereo not given),23 µM,18.4 µM,24.3 µM,44.9 µM,78.4 µM,3.72 µM,91.8 µM,38.9 µM,91.1 µM,2.36,1.01
CCN(C(=O)CC(CC(=O)NCCN1CCCC1)c1ccc(Cl)cc1)C1Cc2ccccc2C1 (stereo not given),20.4 µM,22.6 µM,36.4 µM,55.5 µM,54.2 µM,,,,,,
CCN(C(=O)CC(CC(=O)NCCN1CCCCC1)c1ccc(Cl)cc1)C1Cc2ccccc2C1 (stereo not given),16.5 µM,13.2 µM,20.4 µM,21.2 µM,84.2 µM,3.58 µM,187 µM,> 100 µM,27.4 µM,,6.84
CCN(C(=O)CC(CC(=O)NCCN1CCCC1)c1ccccc1)C1Cc2ccccc2C1 (stereo not given),> 100 µM,> 100 µM,> 100 µM,> 100 µM,> 100 µM,,,,,,
